# Test results taken from the supplement of paper PMC10307832.
# How the values were obtained:
# Experiment in all cases: relative viability (nuclei count vs DMSO), 5 days (fraction); higher = more cells survive
# Carboplatin + Bortezomib = compound: C1CC(C1)(C(=O)O)C(=O)O.[NH2-].[NH2-].[Pt+2] [Carboplatin] + CC(C)C[C@H](NC(=O)[C@H](Cc1ccccc1)NC(=O)c1cnccn1)B(O)O [Bortezomib] (partner 0.002 µM)
# In short: (§1)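 Nuclei were stained with Hoechst during a one-step fixation (final 0.05% Triton X-100, 1% formaldehyde, 1 ug/ml Hoechst) carried out 5 days after dosing, then counted on 4× images. The cells, lung cancer lines in 1536-well plates, had been dosed by pin tool the day after seeding with one drug alone or a fixed anchor-drug dose plus five library-drug doses (not always all listed) in √10 steps. Relative viability is the nuclei count in treated wells divided by that in vehicle wells, and each value is the median of duplicate plates.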
# Carboplatin + Tozasertib = compound: C1CC(C1)(C(=O)O)C(=O)O.[NH2-].[NH2-].[Pt+2] [Carboplatin] + Cc1cc(Nc2cc(N3CCN(C)CC3)nc(Sc3ccc(NC(=O)C4CC4)cc3)n2)n[nH]1 [Tozasertib] (partner 0.1 µM)
# In short: as §1
# GSK126 + Phenformin = compound: CC[C@H](C)N1C=C(C2=C(C=C(C=C21)C3=CN=C(C=C3)N4CCNCC4)C(=O)NCC5=C(C=C(NC5=O)C)C)C [GSK126] + N=C(N)NC(=N)NCCc1ccccc1 [Phenformin] (partner 250 µM)
# In short: as §1
# GSK126 + Decitabine = compound: CC[C@H](C)N1C=C(C2=C(C=C(C=C21)C3=CN=C(C=C3)N4CCNCC4)C(=O)NCC5=C(C=C(NC5=O)C)C)C [GSK126] + Nc1ncn([C@H]2C[C@H](O)[C@@H](CO)O2)c(=O)n1 [Decitabine] (partner 2 µM)
# In short: as §1
Cell Line,relative viability (Carboplatin + Bortezomib; first compound 0.08 µM),relative viability (Carboplatin + Bortezomib; first compound 0.253 µM),relative viability (Carboplatin + Bortezomib; first compound 0.8 µM),relative viability (Carboplatin + Bortezomib; first compound 2.53 µM),relative viability (Carboplatin + Bortezomib; first compound 8 µM),relative viability (Carboplatin + Tozasertib; first compound 0.08 µM),relative viability (Carboplatin + Tozasertib; first compound 0.253 µM),relative viability (Carboplatin + Tozasertib; first compound 0.8 µM),relative viability (Carboplatin + Tozasertib; first compound 2.53 µM),relative viability (Carboplatin + Tozasertib; first compound 8 µM),relative viability (GSK126 + Phenformin; first compound 0.08 µM),relative viability (GSK126 + Phenformin; first compound 0.253 µM),relative viability (GSK126 + Phenformin; first compound 0.8 µM),relative viability (GSK126 + Phenformin; first compound 2.53 µM),relative viability (GSK126 + Phenformin; first compound 8 µM),relative viability (GSK126 + Decitabine; first compound 0.08 µM),relative viability (GSK126 + Decitabine; first compound 0.253 µM),relative viability (GSK126 + Decitabine; first compound 0.8 µM),relative viability (GSK126 + Decitabine; first compound 2.53 µM),relative viability (GSK126 + Decitabine; first compound 8 µM)
NCI-H1355,1.35,1.33,1.18,1.23,1.04,0.578,0.616,0.601,0.489,0.55,0.524,0.448,0.434,0.454,0.391,0.391,0.334,0.318,0.336,0.416
NCI-H1437,0.526,0.486,0.598,0.453,0.425,0.386,0.43,0.403,0.4,0.401,0.298,0.362,0.269,0.319,0.311,0.584,0.569,0.536,0.499,0.527
NCI-H1650,0.221,0.195,0.193,0.198,0.178,0.473,0.342,0.427,0.348,0.373,0.531,0.404,0.44,0.361,0.358,0.437,0.541,0.522,0.402,0.495
NCI-H1651,0.92,0.967,0.927,0.872,0.761,0.89,0.668,0.593,0.508,0.305,0.369,0.268,0.354,0.313,0.364,0.64,0.634,0.606,0.772,0.624
NCI-H1666,0.842,0.776,0.789,0.774,0.724,0.597,0.683,0.599,0.534,0.526,0.586,0.595,0.598,0.522,0.569,0.731,0.755,0.755,0.82,0.726
NCI-H1734,0.97,0.885,0.921,0.888,0.849,0.289,0.295,0.31,0.242,0.26,0.474,0.361,0.393,0.382,0.418,0.511,0.517,0.492,0.515,0.496
NCI-H1755,0.995,1.02,0.992,1.01,0.887,0.57,0.587,0.543,0.535,0.484,0.656,0.637,0.614,0.562,0.555,0.696,0.68,0.684,0.662,0.714
NCI-H1915,0.984,1.01,0.954,0.845,0.487,0.494,0.455,0.411,0.364,0.331,0.412,0.374,0.404,0.359,0.371,0.277,0.262,0.262,0.256,0.252
NCI-H1975,0.345,0.462,0.462,0.419,0.307,0.882,0.719,0.634,0.626,0.677,0.465,0.412,0.392,0.422,0.405,0.427,0.321,0.431,0.397,0.377
NCI-H1993,1.14,1.16,0.915,0.928,0.908,0.61,0.643,0.575,0.593,0.635,0.501,0.546,0.501,0.522,0.554,0.686,0.597,0.575,0.555,0.605
NCI-H2009,1.12,0.938,0.945,0.918,0.671,0.848,0.694,0.76,0.613,0.45,0.506,0.467,0.442,0.43,0.359,0.372,0.334,0.45,0.403,0.381
NCI-H2023,1.06,1.18,1.02,0.717,0.204,0.419,0.394,0.402,0.262,0.158,0.445,0.383,0.373,0.377,0.278,0.267,0.232,0.205,0.209,0.219
NCI-H2085,1.24,1.2,1.03,1,0.82,0.899,0.875,0.727,0.902,0.788,0.871,0.667,0.677,0.725,0.732,0.551,0.511,0.588,0.615,0.518
NCI-H2087,0.945,0.699,0.781,0.833,0.521,0.272,0.242,0.23,0.272,0.226,0.457,0.39,0.448,0.449,0.487,0.246,0.272,0.269,0.293,0.346
NCI-H2126,1.14,1.14,1.15,1.15,1.04,0.971,0.915,0.882,0.828,0.732,0.512,0.534,0.554,0.535,0.507,0.567,0.591,0.609,0.622,0.593
NCI-H2347,1.22,0.815,1.13,1.05,0.768,0.54,0.547,0.637,0.633,0.56,0.488,0.444,0.499,0.352,0.409,0.478,0.588,0.607,0.567,0.648
